From the supplement of paper PMC10307832

Key:
Assay in all cases: relative viability (nuclei count vs DMSO), 5 days (fraction); higher = more cells survive
Bleomycin + Alpelisib = compound: CC1=C(N=C(N=C1N)[C@H](CC(=O)N)NC[C@@H](C(=O)N)N)C(=O)N[C@@H]([C@H](C2=CN=CN2)OC3C(C(C(C(O3)CO)O)O)OC4C(C(C(C(O4)CO)O)OC(=O)N)O)C(=O)N[C@H](C)[C@H]([C@H](C)C(=O)N[C@@H]([C@@H](C)O)C(=O)NCCC5=NC(=CS5)C6=NC(=CS6)C(=O)NCCC[S+](C)C)O [Bleomycin] + Cc1nc(NC(=O)N2CCC[C@H]2C(N)=O)sc1-c1ccnc(C(C)(C)C(F)(F)F)c1 [Alpelisib] (partner 2 µM); settings: main component drawn
Summary of the method: (§1)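 Medians of duplicate plates are given as relative viability. That measure is the nuclei count in treated wells divided by the count in vehicle wells. Counts were taken on 4× images of lung cancer cell lines in 1536-well plates, 5 days after pin-tool dosing the day after seeding with one drug alone or a fixed anchor-drug dose plus five library-drug doses (not always all listed) in √10 steps.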

Etoposide + Pemetrexed = compound: COc1cc([C@@H]2c3cc4c(cc3[C@@H](O[C@@H]3O[C@@H]5CO[C@@H](C)O[C@H]5[C@H](O)[C@H]3O)[C@H]3COC(=O)[C@H]23)OCO4)cc(OC)c1O [Etoposide] + Nc1nc2[nH]cc(CCc3ccc(C(=O)N[C@@H](CCC(=O)O)C(=O)O)cc3)c2c(=O)[nH]1 [Pemetrexed] (partner 0.2 µM)
Summary of the method: as §1

Bleomycin = compound: CC1=C(N=C(N=C1N)[C@H](CC(=O)N)NC[C@@H](C(=O)N)N)C(=O)N[C@@H]([C@H](C2=CN=CN2)OC3C(C(C(C(O3)CO)O)O)OC4C(C(C(C(O4)CO)O)OC(=O)N)O)C(=O)N[C@H](C)[C@H]([C@H](C)C(=O)N[C@@H]([C@@H](C)O)C(=O)NCCC5=NC(=CS5)C6=NC(=CS6)C(=O)NCCC[S+](C)C)O [Bleomycin]; settings: main component drawn
Summary of the method: (§2)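 Viability was read as treated-well nuclei divided by vehicle-well nuclei, using the median across plates. Lung cancer cell lines in 1536-well plates were kept overnight at 37 °C, pinned with five √10-spaced library-drug doses, and after 5 days were Hoechst-stained, imaged at 4× and counted in MetaXpress. Plates passed only with control CV below 25% and at least one doubling.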

Etoposide = compound: COc1cc([C@@H]2c3cc4c(cc3[C@@H](O[C@@H]3O[C@@H]5CO[C@@H](C)O[C@H]5[C@H](O)[C@H]3O)[C@H]3COC(=O)[C@H]23)OCO4)cc(OC)c1O [Etoposide]
Summary of the method: as §2

Cell Line	relative viability (Bleomycin + Alpelisib; first compound 0.01 µM)	relative viability (Bleomycin + Alpelisib; first compound 0.03162 µM)	relative viability (Bleomycin + Alpelisib; first compound 0.1 µM)	relative viability (Bleomycin + Alpelisib; first compound 0.3162 µM)	relative viability (Bleomycin + Alpelisib; first compound 1 µM)	relative viability (Etoposide + Pemetrexed; first compound 0.01 µM)	relative viability (Etoposide + Pemetrexed; first compound 0.03162 µM)	relative viability (Etoposide + Pemetrexed; first compound 0.1 µM)	relative viability (Etoposide + Pemetrexed; first compound 0.3162 µM)	relative viability (Etoposide + Pemetrexed; first compound 1 µM)	relative viability (Bleomycin; 0.01 µM)	relative viability (Bleomycin; 0.03162 µM)	relative viability (Bleomycin; 0.1 µM)	relative viability (Bleomycin; 0.3162 µM)	relative viability (Bleomycin; 1 µM)	relative viability (Etoposide; 0.01 µM)	relative viability (Etoposide; 0.03162 µM)	relative viability (Etoposide; 0.1 µM)	relative viability (Etoposide; 0.3162 µM)	relative viability (Etoposide; 1 µM)
NCI-H647	0.575	0.448	0.337	0.109	0.0917	0.173	0.161	0.188	0.121	0.121	0.397	0.369	0.237	0.125	0.0764	0.815	1.07	0.815	0.442	0.195
A-427	0.983	1.05	1.05	0.48	0.203	0.999	1.06	0.778	0.607	0.305	0.795	0.811	0.748	0.326	0.2	0.968	1.12	0.699	0.612	0.237
EMC-BAC-2	0.647	0.643	0.653	0.355	0.232	0.442	0.466	0.476	0.37	0.284	0.72	0.91	0.747	0.418	0.302	0.964	0.959	0.453	0.278	0.234
NCI-H460	0.294	0.243	0.136	0.0356	0.017	0.0661	0.0549	0.061	0.0772	0.0604	0.738	0.661	0.483	0.0877	0.0714	0.899	0.933	0.785	0.164	0.0591
LCLC-103H	0.92	0.967	1.05	0.934	0.4	0.447	0.477	0.523	0.473	0.469	0.916	0.94	0.982	0.569	0.382	0.976	1.15	0.879	0.942	0.864
HCC-827	0.925	1	0.852	0.599	0.233	0.262	0.266	0.127	0.236	0.192	0.983	1.08	0.9	0.577	0.277	1.07	1.08	0.965	0.659	0.258
NCI-H1355	0.777	0.935	0.802	0.566	0.323	1.09	1.09	0.617	0.919	0.46	0.935	1.02	0.979	0.482	0.297	0.947	1.08	0.535	0.713	0.33
NCI-H1734	0.626	0.519	0.514	0.27	0.216	0.391	0.49	0.408	0.415	0.328	0.811	0.743	0.717	0.411	0.287	0.979	1.2	0.597	0.676	0.304
HARA	0.682	0.784	0.818	0.415	0.373	0.235	0.309	0.25	0.261	0.232	0.804	0.769	0.842	0.506	0.537	0.856	1.18	0.979	0.849	0.348
HCC-15	0.79	0.852	0.751	0.35	0.236	0.213	0.222	0.218	0.183	0.171	0.937	0.873	0.879	0.424	0.382	1.01	1.07	1	0.485	0.182
LCLC-97TM1	0.162	0.186	0.134	0.127	0.101	0.176	0.196	0.168	0.18	0.118	0.394	0.525	0.258	0.16	0.0918	0.945	1.14	0.634	0.468	0.138
SK-LU-1	0.889	0.735	0.902	0.502	0.412	0.991	0.863	0.817	0.363	0.282	0.897	1.01	0.909	0.588	0.411	0.99	1.03	0.67	0.413	0.264
NCI-H1651	0.708	0.71	0.733	0.236	0.174	0.707	0.728	0.466	0.382	0.127	0.865	0.825	0.711	0.456	0.254	0.976	0.997	0.792	0.485	0.199
NCI-H2170	0.775	0.815	0.792	0.58	0.552	0.285	0.26	–	0.261	0.252	0.939	0.934	0.86	0.703	0.66	0.938	0.985	–	0.986	0.834
